Reference: patent US20020082273A1, “Agents for use in the treatment of alzheimer's disease” (priority 1998, published 2002)
Counter-ions that a name gives are not always drawn.

Tests used:
Format in all cases: biochemical
Aβ1-42 = Aβ1-42 (Homo sapiens, UniProt P05067); test: Effect of metal chelators on H2O2 production from Aβ1-42; conditions: 1 μM Cu^2+; chelator 200 μM
[1] = molecular target: T1, Aβ1-40 or Aβ1-42 SDS-resistant polymers (Homo sapiens, UniProt P05067); test: Dissolution of in vitro Cu^2+-induced SDS-resistant Aβ polymers
T1 construct: purchased W. Keck Laboratory, Yale; host or cells: chemical synthesis
T1 sequence (P05067 672-713, change not shown): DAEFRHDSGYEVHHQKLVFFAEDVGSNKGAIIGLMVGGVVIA

[2] = Metal reduction assay, Fe^3+ to Fe^2+; conditions: 10 μM Fe^3+, PBS pH 7.4, 1 hr 37° C.
Protocol: (§1) The metal reduction assay was performed using a 96-well microtiter plate (Costar) based upon a modification of established protocols (Landers, J. W., et al., Amer. Clin. Path. 29:590 (1958); Landers, J. W., et al., Clinica Chimica Acta 3:329 (1958)). Polypeptides (10 μM) or Vitamin C (100 μM), metal ions (10 μM, Fe(NO3)3 or Cu(NO3)2), and reduced metal ion indicators, bathophenanthrolinedisulfonic acid (BP, for Fe^2+, Sigma, 200 μM) or bathocuproinedisulfonic acid (BC, for Cu^+, Sigma, 200 μM), were coincubated in phosphate buffered saline (PBS), pH 7.4, for 1 hr at 37° C. The metal ion solutions were prepared by direct dilution in the buffer from their aqueous stocks purchased from National Institute of Standards and Technology (NIST). Absorbances were then measured at 536 mn (Fe^2+-BP complex) and 483 nm (Cu^+-BC complex), respectively, using a 96-well plate reader (SPECTRAmax 250, Molecular Devices, CA). In control samples, both metal ion and indicator were present to determine the background buffer signal. As a further control, both metal ion and peptide were present in the absence of indicator to estimate the contribution of light scattering due to turbidity to the absorbance reading at these wavelengths. The net absorbances (ΔA) at 536 nm or 483 nm were obtained by deducting the absorbances from these controls from the absorbances generated by the peptide and metal in the presence of the respective indicator.
The concentrations of reduced metal ions (Fe^2+ or Cu^+) were quantified based on the formula: Fe^2+ or Cu^+ (˜M)=A*10^6/(L*M), where L is the measured equivalent vertical pathlength for a well of 300 μL volume as described in the instrument's specifications manual (0.856 cm for Fe^2+; 1.049 cm for Cu^+); M is the known molecular absorbance (M^−1 cm^−1) which is 7124 (for Fe^2+-BP complex) or 2762 (for Cu^+-BC complex).

[3] = Metal reduction assay, Cu^2+ to Cu^+
Protocol: Aβ (10 μM in PBS, pH 7.4 or 6.8, as shown) was incubated for 30 minutes (37° C.) in the presence of Cu^2+10 μM ±Zn^2+ 10 μM). […] levels (n=3, ±SD) were assayed against a standard curve.
as §1, with “Polypeptides” for “The metal reduction assay was performed using a 96-well microtiter plate (Costar) based upon a modification of established protocols (Landers, J. W., et al., Amer. Clin. Path. 29:590 (1958); Landers, J. W., et al., Clinica Chimica Acta 3:329 (1958)). Polypeptides”, “Absorbances were then measured at 536 mn (Fe^2+-BP complex) and 483 nm (Cu^+-BC complex), respectively, using a 96-well plate reader (SPECTRAmax 250, Molecular Devices, CA).” left out

Sequence of Aβ1-42 (P05067 672-713 limits assumed): as the sequence (P05067 672-713, change not shown) above

| disruption of SDS-resistant polymers ([1]; 4.5 M) | disruption of SDS-resistant polymers ([1]; 9M) | Compound | other results |
| --- | --- | --- | --- |
|  |  | O=S(=O)(O)c1ccc(-c2ccnc3c2ccc2c(-c4ccc(S(=O)(=O)O)cc4)ccnc23)cc1 [BP, bathophenanthrolinedisulfonic acid] | effect on H2O2 formation by Aβ1-42 (Aβ1-42): inhibited H2O2 formation |
| did not disrupt | only slightly | NC(N)=O [Urea, urea] |  |
| did not disrupt | only slightly | N=C(N)N [guanidine HCl] |  |
|  |  | insulin: histidine-containing peptide that can bind copper and zinc | reduction of available Fe^3+ [2]: did not significantly facilitate the reduction of Fe^3+; reduction of available Cu^2+ ([3]; 10 μM Cu^2+, PBS pH 7.4, 1 hr 37° C.): 10%; Cu^2+ reduction ([3]; 10 μM, PBS, 30 minutes 37° C., Cu^2+ 10 μM): no Cu^2+ reduction |
